Several values for one entry are separate records, joined by “and”; a condition that tells them apart may be missing. Identical values can stand only once. Like-named read-outs stand apart in the source and are kept apart here.
Assay: CIA study: pharmacokinetics / plasma concentration after oral administration
Assay type: in vivo, Lewis rats
Conditions: for concentration at 2 h / concentration at 4 h / concentration at 6 h / concentration at 8 h / concentration at 0.25 h / concentration at 0.5 h / concentration at 1 h / concentration at 24 h / Plasma Concentration: oral 3 mg/kg

Question: Which Cmax (Lewis, rat, plasma, po, 3 mg/kg, CIA-induced animals, day 21, 3 mg/kg, individual test subjects, read-out: Cmax) does the source give for `Cn1cc(-c2ccccc2)c(-c2cn(C)c(=O)c3[nH]c(-c4cnn(C(F)(F)F)c4)cc23)cc1=O` [Compound A, 6-methyl-4-(1-methyl-2-oxo-5-phenyl-1,2-dihydropyridin-4-yl)-2-(1-(trifluoromethyl)-1H-pyrazol-4-yl)-1,6-dihydro-7H-pyrrolo[2,3-c]pyridin-7-one] here?
Answer: The Cmax was 48.3 ng/mL.

Question: And the MRT inf (Lewis, rat, plasma, po, 3 mg/kg, CIA-induced animals, day 21, 3 mg/kg, individual test subjects, read-out: MRTInf—obs)?
Answer: The MRT inf was 10.1 h.

Question: And the half-life (Lewis, rat, plasma, po, 3 mg/kg, CIA-induced animals, day 21, 3 mg/kg, individual test subjects, read-out: T1/2 (converted))?
Answer: The half-life was 6.79 h.

Question: What about the Tmax (Lewis, rat, plasma, po, 3 mg/kg, CIA-induced animals, day 21, 3 mg/kg, individual test subjects, read-out: Tmax) of the same molecule?
Answer: Its Tmax is 4 h.

Question: What about the concentration at 2 h (Lewis, rat, plasma, po, 3 mg/kg, day 0, 2 h, individual test subjects, read-out: Plasma concentration) of the same molecule?
Answer: The concentration at 2 h was 109 ng/mL.

Question: And the concentration at 4 h (Lewis, rat, plasma, po, 3 mg/kg, day 0, 4 h, individual test subjects, read-out: Plasma concentration)?
Answer: Its concentration at 4 h is 112 ng/mL.

Question: And the concentration at 6 h (Lewis, rat, plasma, po, 3 mg/kg, day 0, 6 h, individual test subjects, read-out: Plasma concentration)?
Answer: The concentration at 6 h was 123 ng/mL.

Question: What about the concentration at 8 h (Lewis, rat, plasma, po, 3 mg/kg, day 0, 8 h, individual test subjects, read-out: Plasma concentration) of the same molecule?
Answer: Its concentration at 8 h is 119 ng/mL.

Question: And the concentration at 0.25 h (Lewis, rat, plasma, po, 3 mg/kg, day 0, time 0.25, read-out: Mean Concentration (average plasma concentration))?
Answer: The concentration at 0.25 h was 16.8 ng/mL.

Question: What about the concentration at 0.5 h (Lewis, rat, plasma, po, 3 mg/kg, day 0, time 0.5, read-out: Mean Concentration (average plasma concentration)) of the same molecule?
Answer: Its concentration at 0.5 h is 28.1 ng/mL.

Question: And the concentration at 1 h (Lewis, rat, plasma, po, 3 mg/kg, day 0, time 1, read-out: Mean Concentration (average plasma concentration))?
Answer: The concentration at 1 h was 51.1 ng/mL.

Question: What about the concentration at 2 h (Lewis, rat, plasma, po, 3 mg/kg, day 0, time 2, read-out: Mean Concentration (average plasma concentration)) of the same molecule?
Answer: The concentration at 2 h was 79 ng/mL.

Question: And the concentration at 4 h (Lewis, rat, plasma, po, 3 mg/kg, day 0, time 4, read-out: Mean Concentration (average plasma concentration))?
Answer: Its concentration at 4 h is 90 ng/mL.

Question: What about the concentration at 6 h (Lewis, rat, plasma, po, 3 mg/kg, day 0, time 6, read-out: Mean Concentration (average plasma concentration)) of the same molecule?
Answer: The concentration at 6 h was 94 ng/mL.

Question: And the concentration at 8 h (Lewis, rat, plasma, po, 3 mg/kg, day 0, time 8, read-out: Mean Concentration (average plasma concentration))?
Answer: Its concentration at 8 h is 90 ng/mL.

Question: What about the concentration at 24 h (Lewis, rat, plasma, po, 3 mg/kg, day 0, time 24) of the same molecule?
Answer: Its concentration at 24 h is 22.3 ng/mL.

Question: What about the concentration at 0.25 h (Lewis, rat, plasma, po, 3 mg/kg, day 21, 0.25 h, individual test subjects, read-out: Plasma concentration) of the same molecule?
Answer: The concentration at 0.25 h was 18.4 ng/mL.

Question: What about the concentration at 0.5 h (Lewis, rat, plasma, po, 3 mg/kg, day 21, 0.5 h, individual test subjects, read-out: Plasma concentration) of the same molecule?
Answer: The concentration at 0.5 h was 22.2 ng/mL.

Question: And the concentration at 1 h (Lewis, rat, plasma, po, 3 mg/kg, day 21, 1 h, individual test subjects, read-out: Plasma concentration)?
Answer: Its concentration at 1 h is 33.6 ng/mL.

Question: And the concentration at 2 h (Lewis, rat, plasma, po, 3 mg/kg, day 21, 2 h, individual test subjects, read-out: Plasma concentration)?
Answer: The concentration at 2 h was 33 ng/mL.

Question: What about the concentration at 4 h (Lewis, rat, plasma, po, 3 mg/kg, day 21, 4 h, individual test subjects, read-out: Plasma concentration) of the same molecule?
Answer: Its concentration at 4 h is 48.3 ng/mL.

Question: What about the concentration at 6 h (Lewis, rat, plasma, po, 3 mg/kg, day 21, 6 h, individual test subjects, read-out: Plasma concentration) of the same molecule?
Answer: Its concentration at 6 h is 44.2 ng/mL.

Question: What about the concentration at 8 h (Lewis, rat, plasma, po, 3 mg/kg, day 21, 8 h, individual test subjects, read-out: Plasma concentration) of the same molecule?
Answer: The concentration at 8 h was 30.9 ng/mL.

Question: And the concentration at 0.25 h (Lewis, rat, plasma, po, 3 mg/kg, day 21, time 0.25, read-out: Mean Concentration (average plasma concentration))?
Answer: Its concentration at 0.25 h is 15.4 ng/mL.

Question: What about the concentration at 0.5 h (Lewis, rat, plasma, po, 3 mg/kg, day 21, time 0.5, read-out: Mean Concentration (average plasma concentration)) of the same molecule?
Answer: Its concentration at 0.5 h is 21 ng/mL.

Question: And the concentration at 1 h (Lewis, rat, plasma, po, 3 mg/kg, day 21, time 1, read-out: Mean Concentration (average plasma concentration))?
Answer: The concentration at 1 h was 28.7 ng/mL.

Question: What about the concentration at 2 h (Lewis, rat, plasma, po, 3 mg/kg, day 21, time 2, read-out: Mean Concentration (average plasma concentration)) of the same molecule?
Answer: The concentration at 2 h was 37.5 ng/mL.

Question: What about the concentration at 4 h (Lewis, rat, plasma, po, 3 mg/kg, day 21, time 4, read-out: Mean Concentration (average plasma concentration)) of the same molecule?
Answer: Its concentration at 4 h is 45.8 ng/mL.

Question: What about the concentration at 6 h (Lewis, rat, plasma, po, 3 mg/kg, day 21, time 6, read-out: Mean Concentration (average plasma concentration)) of the same molecule?
Answer: The concentration at 6 h was 47 ng/mL.

Question: And the concentration at 8 h (Lewis, rat, plasma, po, 3 mg/kg, day 21, time 8, read-out: Mean Concentration (average plasma concentration))?
Answer: Its concentration at 8 h is 40.6 ng/mL.

Question: What about the concentration at 24 h (Lewis, rat, plasma, po, 3 mg/kg, day 21, time 24) of the same molecule?
Answer: The concentration at 24 h was 12.2 ng/mL.

Question: And the AUC (Lewis, rat, plasma, po, CIA-induced animals, day 21, 3 mg/kg, average, read-out: AUClnf (Mean))?
Answer: The AUC was 904 ng·h/mL.

Question: And the Plasma Concentration (day 0, 0.25 h, individual test subjects, 3 mg/kg)?
Answer: Its Plasma Concentration is 28.7 ng/mL and 12.9 ng/mL and 8.85 ng/mL.

Question: And the Plasma Concentration (day 0, 0.5 h, individual test subjects, 3 mg/kg)?
Answer: The Plasma Concentration was 39.3 ng/mL and 25.4 ng/mL and 19.5 ng/mL.

Question: What about the Plasma Concentration (day 0, 1 h, individual test subjects, 3 mg/kg) of the same molecule?
Answer: The Plasma Concentration was 78.4 ng/mL and 40.1 ng/mL and 34.7 ng/mL.

Question: What about the Plasma Concentration (day 0, 2 h, individual test subjects, 3 mg/kg) of the same molecule?
Answer: The Plasma Concentration was 66.0 ng/mL and 62.7 ng/mL.

Question: What about the Plasma Concentration (day 0, 4 h, individual test subjects, 3 mg/kg) of the same molecule?
Answer: Its Plasma Concentration is 77.9 ng/mL and 80.7 ng/mL.

Question: What about the Plasma Concentration (day 0, 6 h, individual test subjects, 3 mg/kg) of the same molecule?
Answer: The Plasma Concentration was 77.1 ng/mL and 82.6 ng/mL.

Question: What about the Plasma Concentration (day 0, 8 h, individual test subjects, 3 mg/kg) of the same molecule?
Answer: The Plasma Concentration was 76.1 ng/mL and 74.4 ng/mL.

Question: What about the Plasma Concentration (day 0, 24 h, individual test subjects, 3 mg/kg) of the same molecule?
Answer: Its Plasma Concentration is 35.6 ng/mL and 14.1 ng/mL and 17.3 ng/mL.

Question: What about the Plasma Concentration (day 21, 0.25 h, individual test subjects, 3 mg/kg) of the same molecule?
Answer: Its Plasma Concentration is 14.7 ng/mL and 13.1 ng/mL.

Question: What about the Plasma Concentration (day 21, 0.5 h, individual test subjects, 3 mg/kg) of the same molecule?
Answer: The Plasma Concentration was 20.9 ng/mL and 19.8 ng/mL.

Question: What about the Plasma Concentration (day 21, 1 h, individual test subjects, 3 mg/kg) of the same molecule?
Answer: Its Plasma Concentration is 27.0 ng/mL and 25.5 ng/mL.

Question: And the Plasma Concentration (day 21, 2 h, individual test subjects, 3 mg/kg)?
Answer: Its Plasma Concentration is 45.6 ng/mL and 33.8 ng/mL.

Question: And the Plasma Concentration (day 21, 4 h, individual test subjects, 3 mg/kg)?
Answer: The Plasma Concentration was 44.3 ng/mL and 44.7 ng/mL.

Question: What about the Plasma Concentration (day 21, 6 h, individual test subjects, 3 mg/kg) of the same molecule?
Answer: The Plasma Concentration was 51.2 ng/mL and 45.7 ng/mL.

Question: And the Plasma Concentration (day 21, 8 h, individual test subjects, 3 mg/kg)?
Answer: The Plasma Concentration was 45.6 ng/mL and 45.3 ng/mL.

Question: What about the Plasma Concentration (day 21, 24 h, individual test subjects, 3 mg/kg) of the same molecule?
Answer: The Plasma Concentration was 6.60 ng/mL and 15.6 ng/mL and 14.4 ng/mL.
